In this test the target is T1, human V1a receptor (Homo sapiens, UniProt P37288).
T1 construct: expressed in transfected cells; host or cells: HEK293 cells, transiently transfected; cell membranes
T1 sequence (P37288 whole entry): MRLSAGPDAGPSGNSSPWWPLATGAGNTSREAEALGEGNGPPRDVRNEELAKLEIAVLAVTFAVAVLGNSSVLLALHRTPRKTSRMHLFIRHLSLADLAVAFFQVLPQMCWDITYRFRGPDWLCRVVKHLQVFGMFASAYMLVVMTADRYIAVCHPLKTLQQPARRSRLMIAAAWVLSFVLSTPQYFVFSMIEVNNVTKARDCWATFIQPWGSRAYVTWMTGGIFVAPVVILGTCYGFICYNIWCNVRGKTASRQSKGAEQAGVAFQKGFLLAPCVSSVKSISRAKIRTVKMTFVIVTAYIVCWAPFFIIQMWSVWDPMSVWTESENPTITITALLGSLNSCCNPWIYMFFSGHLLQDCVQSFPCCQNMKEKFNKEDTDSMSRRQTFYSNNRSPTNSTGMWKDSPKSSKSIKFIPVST
The experiment in a line: human V1a receptor binding (3H-Vasopressin SPA, HEK293 membranes). The note with it: displacement of 4 nM 3H-Vasopressin, membranes of HEK293 cells transiently transfected with human V1a receptor; Ki from IC50 by Cheng-Prussoff. The method in brief: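 Ki derived by Cheng-Prusoff from IC50 curves normalised to specific binding. Serially diluted compounds (in 2% DMSO) competed with 3H-vasopressin (4 nM working solution) for 1 h at room temperature on SPA beads bearing membranes of transiently transfected HEK293 cells; unlabelled vasopressin defined non-specific counts.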
Turning to `O=C(c1cn(CCN2CCOCC2)c2cc(Cl)ccc12)N1CCC2(CC1)COc1ccccc12` [Example 84, 1′-{[6-chloro-1-(2-morpholin-4-ylethyl)-1H-indol-3-yl]carbonyl}spiro[1-benzofuran-3,4′-piperidine]], affinity was put at a Ki of 3.6 nM. This counts as single-digit nanomolar.
The figure for `O=C(Cn1cc(C(=O)N2CCC3(CC2)OC(=O)c2ccccc23)c2ccc(Cl)cc21)c1cccc(F)c1` [Example 135, 1′-({6-Chloro-1-[2-(3-fluorophenyl)-2-oxoethyl]-1H-indol-3-yl}carbonyl)-3H-spiro[2-benzofuran-1,4′-piperidin]-3-one] is 1.8 nM; for `CN1CCC[C@H]1Cn1cc(C(=O)N2CCC3(CC2)OCc2ccccc23)c2ccc(Cl)cc21` [Example 268] it is 0.07 nM; for `O=C(c1c[nH]c2cc(Cl)c(F)cc12)N1CCC2(CC1)COc1ccccc12` [Example 80, 1′-[(6-chloro-5-fluoro-1H-indol-3-yl)carbonyl]spiro[1-benzofuran-3,4′-piperidine]] it is 7.4 nM.
The compound `O=C1OC2(CCN(C(=O)c3cn(C(=O)N4CCCCC4)c4cc(Cl)ccc34)CC2)c2ccccc21` [Example 108, 1′-{[6-Chloro-1-(piperidin-1-ylcarbonyl)-1H-indol-3-yl]carbonyl}-3H-spiro[2-benzofuran-1,4′-piperidin]-3-one] yielded a Ki of 6.2 nM. This Ki and that of the compound before are within 1.5-fold of each other.
`O=C(c1c[nH]c2cc(Cl)ccc12)N1CCC2(CC1)CNc1ccccc12` [Example 8, 1′-[(6-chloro-1H-indol-3-yl)carbonyl]-1,2-dihydrospiro[indole-3,4′-piperidine]]: the Ki turned out to be 27.2 nM.
As for `O=C1OC2(CCN(C(=O)c3cn(Cc4cccc(F)c4)c4cc(Cl)ccc34)CC2)c2ccc(Br)cc21` [Example 151, 5-Bromo-1′-{[6-chloro-1-(3-fluorobenzyl)-1H-indol-3-yl]carbonyl}-3H-spiro[2-benzofuran-1,4′-piperidin]-3-one], the Ki came to 4.8 nM.
Compound `Cc1[nH]c2cc(Cl)ccc2c1C(=O)N1CCC2(CC1)OCc1ccccc12` [Example 277, 1′-[(6-Chloro-2-methyl-1H-indol-3-yl)carbonyl]-3H-spiro[2-benzofuran-1,4′-piperidine]] yielded an inhibition constant (Ki) of 5.2 nM.
The value for `O=C(Cn1cc(C(=O)N2CCC3(CC2)OC(=O)c2ccccc23)c2ccc(Cl)cc21)c1cc(F)ccc1F` [Example 136, 1′-({6-Chloro-1-[2-(2,5-difluorophenyl)-2-oxoethyl]-1H-indol-3-yl]carbonyl)-3H-spiro[2-benzofuran-1,4′-piperidin]-3-one] was 3 nM.
The value for `O=C(c1c[nH]c2cc(Cl)ccc12)N1CCC2(CC1)OCc1ccccc12` [Example 69, 1′-[(6-chloro-1H-indol-3-yl)carbonyl]-3H-spiro[2-benzofuran-1,4′-piperidine]] was 4.3 nM; that for `CN1CCN(C(=O)Cn2cc(C(=O)N3CCC4(CC3)OCc3ccccc34)c3ccc(Cl)cc32)CC1` [Example 212, 1′-({6-Chloro-1-[2-(4-methylpiperazin-1-yl)-2-oxoethyl]-1H-indol-3-yl}carbonyl)-3H-spiro[2-benzofuran-1,4′-piperidine]] was 1.2 nM.
`O=C1OC2(CCN(C(=O)c3cn(CC4(F)COC4)c4cc(Cl)ccc34)CC2)c2ccc(F)cc21` [Example 188, 1′-({6-Chloro-1-[(3-fluorooxetan-3-yl)methyl]-1H-indol-3-yl}carbonyl)-5-fluoro-3H-spiro[2-benzofuran-1,4′-piperidin]-3-one] displayed a Ki of 1.6 nM.
For the compound `Cc1c(C(=O)N2CCC3(CC2)OCc2ccccc23)c2ccccc2n1Cc1cccc(F)c1` [Example 47, 1′-{[1-(3-fluorobenzyl)-2-methyl-1H-indol-3-yl]carbonyl}-3H-spiro[2-benzofuran-1,4′-piperidine]], the Ki stood at 0.5 nM.
The figure for `CNC(=O)Cn1cc(C(=O)N2CCC3(CC2)OCc2ccccc23)c2ccc(Cl)cc21` [Example 255, 2-[6-Chloro-3-(1′H,3H-spiro[2-benzofuran-1,4′-piperidin]-1′-ylcarbonyl)-1H-indol-1-yl]-N-methylacetamide] is 1.4 nM; for `Cc1c(C(=O)N2CCC3(CC2)OCc2ccccc23)c2ccccc2n1CC1CCCCC1` [Example 46, 1′-{[1-(cyclohexylmethyl)-2-methyl-1H-indol-3-yl]carbonyl}-3H-spiro[2-benzofuran-1,4′-piperidine]] it is 0.8 nM; for `O=C(c1cn(CC2CCOCC2)c2cc(Cl)ccc12)N1CCC2(CC1)OCc1ccccc12` [Example 263, 1′-{[6-Chloro-1-(tetrahydro-2H-pyran-4-ylmethyl)-1H-indol-3-yl]carbonyl}-3H-spiro[2-benzofuran-1,4′-piperidine]] it is 1.7 nM.
`O=C(c1cn(CCNO)c2cc(Cl)ccc12)N1CCC2(CC1)OCc1ccccc12` [Example 262, 2-[6-Chloro-3-(1′H,3H-spiro[2-benzofuran-1,4′-piperidin]-1′-ylcarbonyl)-1H-indol-1-yl]-N-hydroxyethanamine]: affinity was put at a Ki of 4.3 nM.
The figure for `COCc1ncc(Cn2cc(C(=O)N3CCC4(CC3)OC(=O)c3cc(F)ccc34)c3ccc(Cl)cc32)c(N)n1` [Example 162, 1′-[(1-{[4-Amino-2-(methoxymethyl)pyrimidin-5-yl]methyl}-6-chloro-1H-indol-3-yl)carbonyl]-5-fluoro-3H-spiro[2-benzofuran-1,4′-piperidin]-3-one] is 65.3 nM; for `O=C1OC2(CCN(C(=O)c3cn(CCc4ccncc4)c4cc(Cl)ccc34)CC2)c2ccc(F)cc21` [Example 167, 1′-{[6-Chloro-1-(2-pyridin-4-ylethyl)-1H-indol-3-yl]carbonyl}-5-fluoro-3H-spiro[2-benzofuran-1,4′-piperidin]-3-one] it is 3 nM.
Compound `COc1ccccc1-c1nc(Cn2c(C)c(C(=O)N3CCC4(CC3)OCc3ccccc34)c3ccccc32)c(C)o1` [Example 58, 1′-[(1-{[2-(2-methoxyphenyl)-5-methyl-1,3-oxazol-4-yl]methyl}-2-methyl-1H-indol-3-yl)carbonyl]-3H-spiro[2-benzofuran-1,4′-piperidine]] gave a Ki of 12.3 nM.
The value for `O=C1OC2(CCN(C(=O)c3cn(Cc4ccccn4)c4cc(Cl)ccc34)CC2)c2ccccc21` [Example 180, 1′-{[6-Chloro-1-(pyridin-2-ylmethyl)-1H-indol-3-yl]carbonyl}-3H-spiro[2-benzofuran-1,4′-piperidin]-3-one] was 1.5 nM; that for `O=C(Cn1cc(C(=O)N2CCC3(CC2)OCc2ccccc23)c2ccc(Cl)cc21)N1CCNCC1` [Example 211, 1′-{[6-Chloro-1-(2-oxo-2-piperazin-1-ylethyl)-1H-indol-3-yl]carbonyl}-3H-spiro[2-benzofuran-1,4′-piperidine]] was 0.8 nM.
Regarding `Cc1c(C(=O)N2CCC3(CC2)OCc2ccccc23)c2ccccc2n1Cc1ccccc1Cl` [Example 53, 1′-{[1-(2-chlorobenzyl)-2-methyl-1H-indol-3-yl]carbonyl}-3H-spiro[2-benzofuran-1,4′-piperidine]], the Ki amounted to 1.7 nM.
In the case of `O=C1OC2(CCN(C(=O)c3cn(-c4ccccn4)c4cc(Cl)ccc34)CC2)c2ccc(F)cc21` [Example 160, 1-[(6-Chloro-1-pyridin-2-yl-1H-indol-3-yl)carbonyl]-5-fluoro-3H-spiro[2-benzofuran-1,4′-piperidin]-3-one], the affinity, expressed as Ki, was 5 nM.

One may read the Ki as a dissociation constant, usually derived from enzyme kinetics or from competition with a known ligand.

For the origin of these results see patent US7332501B2, “Indol-3-yl-carbonyl-spiro-piperidine derivatives as V1a receptor antagonists” (Hoffmann-La Roche Inc., priority 2005, dated 2008).
